# Measured values as given in patent US20090053721A1, “VOLTAGE-GATED ION CHANNEL MUTANTS FOR USE IN IDENTIFYING ION CHANNEL MODULATING COMPOUNDS” (CARDIOME PHARMA CORP., priority 2007, published 2009).
# Counter-ions that a name gives are not always drawn.
# Columns and labels:
# [1] = target: T1, Kv1.5 V505A mutant channel (Homo sapiens, UniProt P22460, V505A); assay: Voltage-dependence of block (Woodhull fit), V505A Kv1.5; assay type: cell-based
# T1 construct: subcloned as a fragment back into full-length Kv1.5; expressed in transfected cells; host or cells: HEK293, transient transfection
# Description: Coverslips with adherent cells plated on the surface were placed in a superfusion chamber (volume 300 μl) containing the control bath solution at 22° C. Whole-cell current recording and analysis were carried out using an Axopatch 200B amplifier and pClamp10 software (Axon Instruments, CA, USA). Patch electrodes were pulled from thin-walled borosilicate glass (World Precision Instruments, FL, USA) on a horizontal micropipette puller (Sutter Instruments, CA, USA). […] Analogue capacity compensation and 80% series resistance compensation were used during whole cell measurements. Membrane potentials were not corrected for junction potentials that arise between the pipette and bath solution. For Kv1.5 current recordings, a holding potential of −80 mV was used. Data were sampled at 10-20 kHz and filtered at 5 to 10 kHz. To assess drug block, half-log escalating concentrations of drug were added to the flowing bath solution and current traces were recorded with 400 ms depolarizing pulses to +60 mV at a frequency of 0.1 Hz.
# f=[D]/([D]+Kd*e^−δzFE/RT)
# where F, R, z and T have their usual meanings, δ represents the fractional electrical distance, i.e., the fraction of the transmembrane electrical field sensed by a single charge at the receptor site. […] The current amplitude (Idrug and Icontrol) was measured at the end of a 400 ms depolarization. […]
# [2] = target: T2, Kv1.5 V505L mutant channel (Homo sapiens, UniProt P22460, V505L); assay: Whole-cell patch-clamp block of mutant Kv1.5 current in HEK293 cells; assay type: cell-based
# T2 construct: subcloned as a fragment back into full-length Kv1.5; expressed in transfected cells; host or cells: HEK293, transient transfection
# Description: Stable lines of HEK293 cells expressing Kv1.5, or transient transfection of mutant Kv1.5 channels were used in all experiments. […] (Coralville, Iowa, USA), and mutants were generated using the Stratagene Quikchange kit (Stratagene, Calif., USA). […] This was added to the cells for overnight incubation after washing the media with 900 μl of MEM with 10% FBS. […] Media contained 10% bovine serum and 0.5 mg/ml geneticin for stable lines. On the day before recording, stably-expressing cells were washed with MEM, treated with trypsin/EGTA for one minute and plated on 25 mm^2 coverslips. All cell culture supplies were obtained from Invitrogen (Mississauga, ON, Canada). Control bath solution contained (in mM): 5 KCl, 135 NaCl, 2.8 sodium acetate, 1 MgCl2, 10 HEPES and 1 CaCl2, adjusted to pH 7.4 with NaOH. Patch pipettes contained (in mM): 130 KCl, 5 EGTA, 1 MgCl2, 10 HEPES, 4 Na2ATP, and 0.1 GTP, adjusted to pH 7.2 with KOH. All chemicals used to make solutions were obtained from Sigma-Aldrich (Mississauga, ON, Canada). […] (Vancouver, BC, Canada) and prepared as a stock solution (50 mM) in H2O. […] DMSO concentrations for either drug never exceeded 0.1% v/v in the final experimental solutions. Coverslips with adherent cells plated on the surface were placed in a superfusion chamber (volume 300 μl) containing the control bath solution at 22° C. Whole-cell current recording and analysis were carried out using an Axopatch 200B amplifier and pClamp10 software (Axon Instruments, CA, USA). Patch electrodes were pulled from thin-walled borosilicate glass (World Precision Instruments, FL, USA) on a horizontal micropipette puller (Sutter Instruments, CA, USA). […] Analogue capacity compensation and 80% series resistance compensation were used during whole cell measurements. Membrane potentials were not corrected for junction potentials that arise between the pipette and bath solution. […] Data were sampled at 10-20 kHz and filtered at 5 to 10 kHz. […] Data are represented as mean±SE unless otherwise specified. For significance of differences, * represents p<0.05, ** p<0.01; statistical analysis was conducted using Student's t-test (unpaired). Clampfit software (Axon Instruments, CA, USA) was used to analyze current traces. Data from each test pulse (currents in the presence of drug) were normalized to control test pulse currents obtained before drug exposure. […] IC50 is the concentration producing half-maximal inhibition; and n is the Hill coefficient.
# T2 sequence (P22460 whole entry V505L, the tested form may be a part): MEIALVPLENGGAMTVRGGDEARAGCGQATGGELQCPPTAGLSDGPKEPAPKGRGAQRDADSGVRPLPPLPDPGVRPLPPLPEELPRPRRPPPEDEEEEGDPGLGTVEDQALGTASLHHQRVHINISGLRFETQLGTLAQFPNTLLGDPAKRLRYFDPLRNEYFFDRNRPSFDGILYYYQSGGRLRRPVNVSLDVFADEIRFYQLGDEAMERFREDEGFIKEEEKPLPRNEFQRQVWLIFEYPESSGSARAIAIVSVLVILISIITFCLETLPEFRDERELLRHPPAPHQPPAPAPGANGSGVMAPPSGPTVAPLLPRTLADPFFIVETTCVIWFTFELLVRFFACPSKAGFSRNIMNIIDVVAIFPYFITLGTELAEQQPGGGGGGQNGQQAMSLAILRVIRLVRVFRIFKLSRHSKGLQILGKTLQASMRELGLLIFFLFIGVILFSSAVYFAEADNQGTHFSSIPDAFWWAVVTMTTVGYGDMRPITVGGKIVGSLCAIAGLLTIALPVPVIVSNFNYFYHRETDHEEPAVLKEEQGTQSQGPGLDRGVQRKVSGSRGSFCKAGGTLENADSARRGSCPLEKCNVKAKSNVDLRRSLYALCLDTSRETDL
# T1 sequence (P22460 whole entry V505A, the tested form may be a part): as the sequence (P22460 whole entry V505L, the tested form may be a part) above, with L505A counted along it
SMILES,change in electrical distance versus WT [1],Hill coefficient [2],Fractional Block ± SEM ([2]; 10 μM vernakalant)
O=C(NCC1CCCCN1)c1cc(OCC(F)(F)F)ccc1OCC(F)(F)F (stereo not drawn) [Flecainide],significant increase in distance,,
"COc1ccc(CCO[C@@H]2CCCC[C@H]2N2CC[C@@H](O)C2)cc1OC [Vernakalant, 3-Pyrrolidinol, 1-[(1R,2R)-2-[2-(3,4-dimethoxyphenyl)ethoxy]cyclohexyl]-,hydrochloride, (3R)]",,0.77,0.22 ± 0.07
